Laboratory results reported in patent publication US20240108740A1, “THERAPEUTIC COMPOSITIONS INCLUDING SPN10 AND USES THEREOF” (Stealth BioTherapeutics Inc., priority 2022, published 2024).
Residues, ends and D or L forms follow the SMILES beside them.

Columns and labels:
mice treated with Mtox = assay: Example 31: Mtox model of Parkinson's Disease; type: in vivo, mouse; settings: Mtox 10 mg/kg, three doses
Procedure: Three doses of Mtox (10 mg/kg) will be given to mice (n=12) 2 hours apart. Peptide conjugates, aromatic-cationic peptides, or SPN10(s) with or without aromatic-cationic peptides will be administered 30 minutes before each Mtox injection, and at 1 and 12 hours after the last Mtox injection. Animals will be sacrificed one week later and striatal brain regions will be immunostained for tyrosine hydroxylase activity. Levels of dopamine, DOPAC and HVA levels will be quantified by high pressure liquid chromatography.

Sprague Dawley rats = assay: Example 54: metabolic syndrome (HFD/STZ); type: in vivo, rat; settings: 10 weeks of administration
Procedure: Sprague Dawley rats will be fed with a high-fat diet (HFD) for 6 weeks and then administered a single dose of STZ (30 mg/kg). The rats will be maintained on HFD until 14 weeks after STZ administration. Control subjects fed normal rat chow (NRC) for 6 weeks will be administered citrate buffer without STZ. After 5 months, diabetic subjects will be treated with peptide conjugates (10 mg/kg, 3 mg/kg, or 1 mg/kg s.c.q.d. (subcutaneously, once daily)), aromatic-cationic peptides (an equivalent molar dose of aromatic-cationic peptide based on the concentration of the aromatic-cationic peptide administered in the peptide conjugate group), SPN10(s) (an equivalent molar dose of SPN10 based on the concentration of SPN10 administered in the peptide conjugate group), SPN10(s) in combination with aromatic-cationic peptides (e.g., an equivalent molar dose of SPN10 based on the concentration of SPN10 administered in the peptide conjugate treatment group and an equivalent molar dose of aromatic-cationic peptide based on the concentration of aromatic-cationic peptide administered in the peptide conjugate treatment group) or control vehicle (saline) 5 days per week for 10 weeks. The study groups will be as follows: • Group A: HFD/STZ+peptide conjugates 10 mg/kg s.c.q.d. (Mon-Fri.), n=12; • Group B: HFD/STZ+peptide conjugates 3 mg/kg s.c.q.d. […]

cell stress recovery = settings: Mitchell et al., bioRxiv, cited from earlier work

Compound: N=C(N)NCCC[C@H](NC(=O)[C@@H](N)Cc1c[nH]c2ccccc12)C(=O)N[C@@H](Cc1c[nH]c2ccccc12)C(=O)N[C@@H](CCCCN)C(N)=O [SPN10, H-L-Trp-L-Arg-L-Trp-L-Lys-NH2] (H-WRWK-NH2)
- loss of dopaminergic neurons (mice treated with Mtox): dose-dependently prevent the loss of dopaminergic neurons
- striatal dopamine, DOPAC, and HVA levels (mice treated with Mtox): dose-dependently increase striatal dopamine, DOPAC, and HVA levels
- blood triglyceride level of HFD/STZ rats (Sprague Dawley rats): reduced to normal levels
- potency in cell stress recovery (cell stress recovery; among SS-31, SS-20, SPN4, SPN10): greatest potency
- performance compared with SS-31 (cell culture assays, structure-activity analysis) (cell stress recovery): consistently outperformed SS-31
